± gives the standard error.
Tests used:
[1] = test system: 621-102 (TSC2-deficient); assay: relative viability vs DMSO; higher = less cytotoxic; settings: serum: 10% FBS, 72 h
[2] = test system: 621-103 (TSC2-rescued); assay: as above; settings: serum: 10% FBS, 72 h
[3] = test system: 621-102 (TSC2-deficient); assay: relative viability vs DMSO (fraction); higher = less cytotoxic; settings: serum: 0.1% FBS, 72 h
[4] = test system: UMB1949 (TSC2-deficient); assay: as above; settings: serum: 0.1% FBS, 72 h;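 note: renal angiomyolipoma cell lines screened in 384-well plates, viability normalized per plate to DMSO-treated cells, each plate carrying 50 nM rapamycin and 1 µM staurosporine controls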

Row | Structure (SMILES) | relative viability ([1]; 0.0001 µM) | relative viability ([1]; 0.001 µM) | relative viability ([1]; 0.01 µM) | relative viability ([1]; 0.1 µM) | relative viability ([1]; 1 µM) | relative viability ([1]; 10 µM) | relative viability ([2]; 0.0001 µM) | relative viability ([2]; 0.001 µM) | relative viability ([2]; 0.01 µM) | relative viability ([2]; 0.1 µM) | relative viability ([2]; 1 µM) | relative viability ([2]; 10 µM) | relative viability ([3]; 0.0128 nM) | relative viability ([3]; 0.064 nM) | relative viability ([3]; 0.32 nM) | relative viability ([3]; 1.6 nM) | relative viability ([3]; 8 nM) | relative viability ([3]; 40 nM) | relative viability ([3]; 200 nM) | relative viability ([3]; 1000 nM) | relative viability ([3]; 5000 nM) | relative viability ([4]; 0.0128 nM) | relative viability ([4]; 0.064 nM) | relative viability ([4]; 0.32 nM) | relative viability ([4]; 1.6 nM) | relative viability ([4]; 8 nM) | relative viability ([4]; 40 nM) | relative viability ([4]; 200 nM) | relative viability ([4]; 1000 nM) | relative viability ([4]; 5000 nM)
1 | COc1cc(Nc2ncc3c(n2)-c2ccc(Cl)cc2C(c2c(F)cccc2OC)=NC3)ccc1C(=O)O [MLN8237] | 102 ± 2.6% | 87.64 ± 0.83% | 95.68 ± 0.57% | 87.6 ± 0.9% | 74.6 ± 5.1% | 69.9 ± 2.5% | 103 ± 2.5% | 103.9 ± 0.17% | 98.7 ± 2.3% | 93.8 ± 1% | 91.1 ± 1.4% | 74.62 ± 0.32% | 0.864 | 0.862 | 0.767 | 0.248 | 0.118 | 0.0792 | 0.0576 | 0.0449 | 0.0354 | 0.99 | 0.824 | 0.525 | 0.215 | 0.146 | 0.0466 | 0.0216 | 0.0132 | 0.0159
2 | CC(C)C[C@H](NC(=O)CNC(=O)c1cc(Cl)ccc1Cl)B1OC(=O)C(CC(=O)O)(CC(=O)O)O1 [MLN9708] | 103 ± 2.1% | 104 ± 2.3% | 107 ± 4.3% | 21.9 ± 4.2% | 3.28 ± 0.3% | 2.38 ± 0.081% | 99.131 ± 0.04% | 98.8 ± 0.59% | 102 ± 2.2% | 4.63 ± 0.36% | 1.63 ± 0.029% | 0.886 ± 0.074% | 1.35 | 1.13 | 1.2 | 1.17 | 1 | 0.392 | 0.0117 | 0.00236 | 0.000667 | 1.05 | 1.02 | 1.01 | 1.02 | 1 | 0.0169 | 0.00139 | 0.00101 | 0.000797
3 | O=c1cc(N2CCOCC2)oc2c(-c3cccc4c3sc3ccccc34)cccc12 [NU7441] | 61.9 ± 2.2% | 57.3 ± 5.1% | 78.8 ± 9.5% | 78.5 ± 3% | 88.7 ± 5.2% | 41.2 ± 0.43% | 105 ± 2.5% | 109 ± 1.9% | 111 ± 1.2% | 102.6 ± 0.65% | 101 ± 2.8% | 56.7 ± 1.8% | 1.29 | 0.918 | 0.935 | 0.718 | 0.623 | 0.724 | 0.674 | 0.227 | 0.00895 | 1.06 | 0.893 | 1.08 | 0.961 | 0.89 | 0.85 | 0.236 | 0.00964 | 0.00523
4 | Nc1ncnc2c1c(-c1cccc(OCc3ccccc3)c1)cn2C1CC(CN2CCCC2)C1 (stereo not given) [NVP-ADW742] | 74.8 ± 0.9% | 61.6 ± 3.1% | 69.9 ± 9.3% | 66.3 ± 5.1% | 77.3 ± 6% | 70.1 ± 4.5% | 98.4 ± 1% | 96 ± 1.5% | 94.3 ± 2.1% | 96.7 ± 2.4% | 92.3 ± 6% | 59.3 ± 0.83% | 1.03 | 1.02 | 1.03 | 1.04 | 1.05 | 0.948 | 0.817 | 0.724 | 0.0714 | 1.02 | 1.04 | 1.13 | 1.14 | 1.07 | 1.09 | 0.995 | 0.273 | 0.0444

— the supplement of paper PMC8960247
